ChEMBL document CHEMBL1158846, “Three new bistetrahydrofuran acetogenins from the seeds of Annona spinescens” (J Nat Prod, 1998)
Values after ≈ are worked out from the molar mass of the structure shown.

Legend:
KB = experiment: Cytotoxicity against human KB cells; assay type: functional
[1] = Cytotoxicity against african green monkey Vero cells; assay type: cell-based; conditions: chlorocebus sabaeus, read-out: ED50 (the source's name)

Row | SMILES | ED50 (KB) | CC50 [1] [ng/mL]
1 | CCCCCCC(O)CCC[C@H](O)[C@@H]1CC[C@@H]([C@@H]2CC[C@H]([C@H](O)CCCCCCCCCCCCC3=C[C@H](C)OC3=O)O2)O1 (stereo not given in full) [CAROLIN A] | 1 ×10⁻⁷ ug/ml | 2 (≈ 3.21 nM)
2 | CCCCCC(O)CCCC[C@H](O)[C@@H]1CC[C@@H]([C@@H]2CC[C@H]([C@H](O)CCCCCCCCCCCCC3=C[C@H](C)OC3=O)O2)O1 (stereo not given in full) [CAROLIN B] | 5 ×10⁻⁶ ug/ml | 3.7 (≈ 5.94 nM)
3 | CCCCCCC(O)CCC[C@H](O)[C@@H]1CC[C@@H]([C@@H]2CC[C@H]([C@H](O)CCCCCCCCCCC3=C[C@H](C)OC3=O)O2)O1 (stereo not given in full) [CAROLIN C] | 2 ×10⁻⁴ ug/ml | 50 (≈ 84.1 nM)
4 | CCCCCC(O)C(O)CCC[C@H](O)[C@H]1CC[C@@H]([C@@H]2CC[C@@H]([C@@H](O)CCCCCCCCCCCCC3=C[C@H](C)OC3=O)O2)O1 (stereo not given in full) [SPINENCIN] | 1 ×10⁻⁵ ug/ml | 6 (≈ 9.39 nM)
5 | CCCCCC[C@H](O)CCC[C@H](O)[C@H]1CC[C@H]([C@H]2CC[C@H]([C@H](O)CCCCCCCCCCCCC3=C[C@H](C)OC3=O)O2)O1 [SQUAMOCIN] | 4 ×10⁻⁴ ug/ml | 10 (≈ 16.1 nM)
